Data: patent US20240351996A1, “CDK19-SELECTIVE INHIBITORS, AND METHODS OF USE THEREOF” (CZ BIOHUB SF, LLC, priority 2022, published 2024)

Legend:
CDK19/CycC = CDK19/CycC (Homo sapiens, UniProt Q9BWU1); assay: LanthaScreen europium kinase binding assay (FRET displacement), CDK19; settings: for CDK19 Selectivity: CDK19/CDK8 selectivity based on IC50 values; for IC50: his-tagged CDK19/CycC 5 nM, tracer 10 nM, 3 h incubation
Description: (§1) FRET Displacement Assay to Measure IC50: The CDK19/CDK8 IC50 values were measured to evaluate activity and to determine CDK19/CDK8 selectivity. The IC50 values of the disclosed compounds was measured using a LanthaScreen™ europium kinase binding assay (ThermoFisher), as described herein.
To a kinase buffer cocktail solution (i.e., 5× Kinase Buffer A) was added: purified recombinant his-tagged CDK19/CycC protein (5 nM), ATP-competitive kinase inhibitor scaffold kinase tracer Alexa Fluor® 665 (10 nM), biotin anti-his tag antibody (2 nM), LanthaScreen® europium-streptavidin (2 nM). An aliquot of the cocktail solution (10 μL) was added to each well of a LUMITRAC™ 200:384 flat bottom, non-treated microtiter white plate. The plate was then covered to protect light sensitive reagents and incubated for 30 min at room temperature to equilibrate before addition of any inhibitors.
(§2) A serial dilution of the compounds was titrated into each well using an automated liquid handling Staccato integrated system at the following concentration(s) (Log10 Molar [C]): −4.5, −5.0, −5.5, −6.0, −6.5, −7.0, −7.5, −8.0 so that a complete dose-response could be calculated. A Tecan microplate reader infinite m200 instrument was then used to measure the FRET signal of each individual well using an excitation of 317/20 nm, emission europium of 620/12 nm, and emission kinase tracer of 665/12 nm after a 3 h incubation period at room temperature until steady-state kinetics were achieved.
(§3) Results were performed in duplicate and were repeated a total of 3 independent times before data was normalized to the DMSO control group and IC50 values reported.

CDK8 = CDK8 (Homo sapiens, UniProt P49336); assay: LanthaScreen europium kinase binding assay (FRET displacement), CDK8
Chain of CDK8 (P49336 whole entry): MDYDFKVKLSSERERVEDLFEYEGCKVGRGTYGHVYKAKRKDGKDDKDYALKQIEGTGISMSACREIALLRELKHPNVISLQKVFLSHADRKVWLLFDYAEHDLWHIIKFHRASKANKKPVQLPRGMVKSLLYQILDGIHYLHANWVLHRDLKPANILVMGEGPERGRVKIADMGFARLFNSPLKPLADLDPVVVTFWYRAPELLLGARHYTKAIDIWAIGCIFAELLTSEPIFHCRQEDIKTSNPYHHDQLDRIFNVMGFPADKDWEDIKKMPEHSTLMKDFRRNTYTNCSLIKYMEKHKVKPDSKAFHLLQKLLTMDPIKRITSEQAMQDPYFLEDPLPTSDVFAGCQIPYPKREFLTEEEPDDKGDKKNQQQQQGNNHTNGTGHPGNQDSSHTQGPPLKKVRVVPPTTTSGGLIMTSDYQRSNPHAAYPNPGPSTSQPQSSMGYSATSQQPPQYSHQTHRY
Chain of CDK8 (P24863 whole entry partner): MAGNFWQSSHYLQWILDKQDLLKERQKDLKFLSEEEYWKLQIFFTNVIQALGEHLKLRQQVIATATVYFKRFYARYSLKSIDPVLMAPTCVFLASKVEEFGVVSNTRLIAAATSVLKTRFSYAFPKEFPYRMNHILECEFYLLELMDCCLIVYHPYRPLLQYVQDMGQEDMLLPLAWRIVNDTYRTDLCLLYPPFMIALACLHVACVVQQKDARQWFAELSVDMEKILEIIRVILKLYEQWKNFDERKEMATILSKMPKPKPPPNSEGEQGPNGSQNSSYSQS
Description: as §1
[…] An aliquot of the cocktail solution (10 μL) was added to each well of a LUMITRAC™ 200:384 flat bottom, non-treated microtiter white plate. The plate was then covered to protect light sensitive reagents and incubated for 30 min at room temperature to equilibrate before addition of any inhibitors.
as §2, §3

Chain of CDK19/CycC (Q9BWU1 whole entry): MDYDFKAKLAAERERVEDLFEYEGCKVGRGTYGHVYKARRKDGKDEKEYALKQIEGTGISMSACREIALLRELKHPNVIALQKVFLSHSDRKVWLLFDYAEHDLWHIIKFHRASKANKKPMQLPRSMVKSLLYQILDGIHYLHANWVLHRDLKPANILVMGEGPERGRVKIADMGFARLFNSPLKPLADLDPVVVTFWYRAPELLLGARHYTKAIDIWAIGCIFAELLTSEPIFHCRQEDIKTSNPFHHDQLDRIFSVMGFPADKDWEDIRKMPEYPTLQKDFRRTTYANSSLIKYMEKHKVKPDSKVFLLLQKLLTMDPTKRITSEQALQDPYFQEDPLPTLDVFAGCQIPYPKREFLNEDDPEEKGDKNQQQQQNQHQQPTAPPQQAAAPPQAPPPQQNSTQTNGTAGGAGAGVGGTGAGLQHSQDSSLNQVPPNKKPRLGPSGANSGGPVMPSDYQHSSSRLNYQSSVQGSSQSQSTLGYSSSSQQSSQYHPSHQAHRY
Chain of CDK19/CycC (P24863 whole entry partner): as the sequence (P24863 whole entry partner) above

SMILES	CDK19 Selectivity (CDK19/CycC)	IC50 (CDK19/CycC)	IC50 (CDK8)
c1cc(Nc2cnc(Nc3ccc(C4CCCCC4)cc3)nc2)c(OC2CCCC2)cn1 [Compound A1]	1.2	69 nM	59 nM
c1cc(Nc2cnc(Nc3ccc(C4COC4)cc3)nc2)c(OC2CCCC2)cn1 [Compound A2]	1.2	11 nM	14 nM
c1cc(Nc2cnc(Nc3ccc(C4CCCC4)cc3)nc2)c(OC2CCCC2)cn1 [Compound A3]	1.1	7.6 nM	8.2 nM
CC(C)Cc1ccc(Nc2ncc(Nc3ccncc3)cn2)cc1 [Compound A5]	3		
Cc1nc(Nc2ccc(CC(C)C)cc2)ncc1Nc1ccncc1 [Compound A6]	5.5	38 nM	210 nM
Fc1ccc(Nc2ncc(Nc3ccncc3)cn2)cc1 [Compound A7]		10000 nM	14000 nM
Cc1cc(Nc2cnc(Nc3ccc(CC(C)C)cc3)nc2)ccn1 [Compound A8]	3.3		
Cc1cc(Nc2cnc(Nc3ccc(CC(C)C)cc3)nc2)cc(C)n1 [Compound A9]	4	2070 nM	8260 nM
CCCc1ccc(Nc2ncc(Nc3ccnc(C)c3)cn2)cc1 [Compound A10]	3.1	99 nM	310 nM
Cc1cnc2ccccc2c1Nc1cnc(Nc2ccc(CC(C)C)cc2)nc1 [Compound A12]	0.9	38 nM	34 nM
Cc1ccc2nccc(Nc3cnc(Nc4ccc(CC(C)C)cc4)nc3)c2c1 [Compound A13]	2.4	24 nM	56 nM
CCCc1ccc(Nc2ncc(Nc3ccncc3)cn2)cc1 [Compound A14]	3.3	29 nM	96 nM
CCCc1ccc(Nc2ncc(Nc3ccnc4ccccc34)cn2)cc1 [Compound A15]	1.1	96 nM	109 nM
c1cc(Nc2cnc(Nc3ccc(C4CC4)cc3)nc2)ccn1 [Compound A16]	2.8	133 nM	371 nM
Cc1cc(Nc2cnc(Nc3ccc(C4CC4)cc3)nc2)ccn1 [Compound A17]	2.8	419 nM	1160 nM
Cc1cc(Nc2cnc(Nc3ccc(C4CC4)cc3)nc2)cc(C)n1 [Compound A18]		10000 nM	10000 nM
FC(F)C(F)(F)Oc1ccc(Nc2ncc(Nc3ccncc3)cn2)cc1 [Compound A19]	4.2	9.1 nM	38 nM
CCCc1ccc(Nc2ncc(Nc3cc(C)nc(C)c3)cn2)cc1 [Compound A20]		10000 nM	10000 nM
Cc1cnccc1Nc1cnc(Nc2ccc(CC(C)C)cc2)nc1C [Compound A22]	1.3	24 nM	31 nM
COc1cc(Nc2cnc(Nc3ccc(CC(C)C)cc3)nc2)ccn1 [Compound A23]	4.5	100 nM	451 nM
Cc1cc(Nc2cnc(Nc3cccc(C4CC4)c3)nc2)ccn1 [Compound A24]		9870 nM	10000 nM
COc1cnccc1Nc1cnc(Nc2ccc(CC(C)C)cc2)nc1C [Compound A25]	0.9	16 nM	15 nM
c1cc(Nc2ncc(Nc3ccncc3)cn2)cc(C2CC2)c1 [Compound A26]	1.6	5690 nM	9030 nM
Cc1cc(Nc2cnc(Nc3cccc(C4CC4)c3)nc2)cc(C)n1 [Compound A27]		10000 nM	10000 nM
CC(C)Cc1cccc(Nc2ncc(Nc3ccncc3)cn2)c1 [Compound A28]	1.7	1640 nM	2730 nM
Cc1cc(Nc2cnc(Nc3cccc(CC(C)C)c3)nc2)ccn1 [Compound A29]	2	991 nM	2030 nM
Cc1cc(Nc2cnc(Nc3cccc(CC(C)C)c3)nc2)cc(C)n1 [Compound A30]		10000 nM	10000 nM
CC(C)Cc1cccc(Nc2ncc(Nc3cccnc3)cn2)c1 [Compound A31]		9030 nM	9930 nM

SMILES	CDK19 Selectivity (CDK19/CycC)	IC50 (CDK19/CycC)	IC50 (CDK8)
Cc1cnccc1Nc1cnc(Nc2cccc(CC(C)C)c2)nc1 [Compound A32]	3.5	378 nM	1320 nM
COc1cc(Nc2cnc(Nc3cccc(CC(C)C)c3)nc2)ccn1 [Compound A33]	3	965 nM	2870 nM
CC(C)Cc1cccc(Nc2ncc(Nc3ccnc(C(C)C)c3)cn2)c1 [Compound A34]	5	903 nM	4510 nM
CC(C)Cc1cccc(Nc2ncc(Nc3ccnc(C(F)(F)F)c3)cn2)c1 [Compound A35]		10000 nM	10000 nM
COc1cc(CC(C)C)ccc1Nc1ncc(Nc2ccncc2)cn1 [Compound A36]	4.2	123 nM	513 nM
c1cc(Nc2cnc(Nc3ccc4c(c3)CCCC4)nc2)ccn1 [Compound A37]	2	41 nM	83 nM
COc1cc(N2CCN(C)CC2)ccc1Nc1ncc(Nc2ccncc2)cn1 [Compound A38]		10000 nM	10000 nM
Cc1cc(CC(C)C)cc(Nc2ncc(Nc3ccncc3)cn2)c1 [Compound A40]		25000 nM	
Cc1cc(Nc2ncc(Nc3ccncc3)cn2)ccc1F [Compound A41]	1	8940 nM	8940 nM
Cc1cc(Nc2cnc(Nc3ccc(CC4CC4)cc3)nc2)ccn1 [Compound A42]	2	449 nM	833 nM
c1ccc2c(Nc3cnc(Nc4ccc(CC5CC5)cc4)nc3)ccnc2c1 [Compound A43]	6	6 nM	37 nM
FC(F)(F)c1cc(Nc2ncc(Nc3ccncc3)cn2)cc(C(F)(F)F)c1 [Compound A44]	1	4810 nM	6330 nM
c1cc(Nc2cnc(Nc3ccc(CC4CC4)cc3)nc2)ccn1 [Compound A45]	2	138 nM	214 nM
CC(C)Cc1ccc(Nc2ncc(Nc3ccnc(C(C)C)c3)cn2)cc1 [Compound A46]	4.6	88 nM	407 nM
CC(C)Cc1ccc(Nc2ncc(NC(=O)c3ccncc3)cn2)cc1 [Compound A48, N-(2-((4-isobutylphenyl)amino)pyrimidin-5-yl) isonicotinamide]	5.3	1550 nM	8220 nM
CC(C)Cc1ccc(Nc2ncc(C(=O)Nc3ccncc3)cn2)cc1 [Compound A49, 2-((4-isobutylphenyl)amino)-N-(pyridin-4-yl)pyrimidine-5-carboxamide]	3.9	2490 nM	9360 nM
COc1cnccc1Nc1cnc(Nc2ccc(CC(C)C)cc2)nc1 [Compound A50]	≥6	≤ 2.5 nM	16 nM
CCc1cnccc1Nc1cnc(Nc2ccc(CC(C)C)cc2)nc1 [Compound A51]	≥15	≤ 2.5 nM	38 nM
CC(C)Cc1ccc(Nc2ncc(Nc3cccnc3)cn2)cc1 [Compound A52, N2-(4-isobutylphenyl)-N5-(pyridin-3-yl)pyrimidine-2,5-diamine]	5	704 nM	3550 nM
CC(C)Cc1ccc(Nc2ncc(Nc3ccncc3OC3CCCCC3)cn2)cc1 [Compound A54]	0.8	45 nM	35 nM
CC(C)Cc1ccc(Nc2ncc(Nc3ccncc3OC3CCCNC3)cn2)cc1 (stereo not drawn) [Compound A55]	1.1	40 nM	44 nM
CC(C)Cc1ccc(Nc2ncc(Nc3ccncc3F)cn2)cc1 [Compound A56]	≥11	≤ 2.5 nM	27 nM
CC(C)Cc1ccc(Nc2ncc(Nc3ccncc3Cl)cn2)cc1 [Compound A57]	2	≤ 2.5 nM	3 nM
CC(C)Cc1ccc(Nc2ncc(Nc3ccncc3Cl)cn2)c(F)c1 [Compound A58]	2	≤ 2.5 nM	2.8 nM
CC(C)Cc1ccc(Nc2ncc(Nc3ccncc3)cn2)cc1 [Compound A140]	2.5		
Cc1cc(Nc2cnc(Nc3ccc(CC(C)C)cc3)nc2)ccn1 [Compound A144]	2.5		
O=C(NC1CCCC1)c1cnccc1Nc1cnc(Nc2ccc(C3CCCCC3)cc2)nc1 [Compound A151]		1110 nM	
